Assay results as given in patent US20140235578A1, “METHODS FOR TREATING NEOPLASIA AND FOR IDENTIFYING COMPOSITIONS USEFUL IN SUCH THERAPY” (priority 2007, published 2014).

Experiments:
[1] = molecular target: purified recombinant human Top2β (Homo sapiens, UniProt Q02880); test: In vitro DNA cleavage assay (Bodley et al.), Top2β; assay type: biochemical; settings: for Poisoning activity against Top2β: DNA cleavage, purified recombinant human Top2β; for activity against Top2β: as stated in Table 2; as to Poisoning activity against Top2β: key: each + represent roughly 10-fold in activity; −: non-detectable
Protocol: (§1) Various β-carboline derivatives of compounds of Formula I above were evaluated for their antineoplastic activities and for their ability to preferentially poison Top2 isozymes. These compounds (i.e. those in Table 1 below) were also evaluated for Top2 isozyme-specific poisoning using the in vitro DNA cleavage assay described by Bodley et al. In the studies, purified recombinant human Top2 isozymes were used.
(§2) Reactions were terminated with SDS (final 1%) and digested with proteinase K (100 μg/ml at 50° C. for 1 hr). After adding gel loading solution, the reaction mixtures were analyzed by agarose gel electrophoresis. Gel was dried and exposed to x-ray films for visualization.
(§3) In certain preferred embodiments, the methods for identifying Top2α preferential poisons include using in vitro DNA cleavage assays. In the in vitro DNA cleavage assay, compounds as potential Top2 poisons are tested for their isozyme specificities through this assay using purified recombinant human Top2α (“hTop2α”) and human Top2β (“h Top2β”) isozymes. In this assay, the ability of various Top2 poisons to induce Top2 isozyme-mediated DNA cleavage of ^32P end-labeled linearized plasmid DNA was assessed. Thus, the relative specificity of various Top2 poisons against Top2 isozymes can be qualitatively determined based on the depletion of band intensities and/or the intensities of bands representing the cleavage products.

[2] = molecular target: purified recombinant human Top2α (Homo sapiens, UniProt P11388); test: In vitro DNA cleavage assay (Bodley et al.), Top2α; assay type: biochemical; settings: as stated in Table 2
Protocol: as §1, §2, §3

A549 lung carcinoma = test: Cytotoxicity IC50 against A549 lung carcinoma; assay type: cell-based
H9C2 cardiomyocytes [3] = test: γ-H2AX DNA damage signal by Western blotting; assay type: cell-based; settings: for effect on doxorubicin-induced γ-H2AX: ROS scavenger 100 μg/ml, added 30 min prior to doxorubicin
Protocol: Cell lysates were analyzed by Western blotting using anti-γ-H2AX or anti-α-tubulin antibody (for assessing protein loading). […] Cells were then lysed and analyzed by Western blotting using anti-γ-H2AX or anti-α-tubulin antibody. […] Cells were then lysed and analyzed by Western blotting using anti-γ-H2AX or anti-α-tubulin antibody.
(§4) Vitamin C and NAC were added 30 min prior to doxorubicin. Cell lysates were then analyzed by Western blotting using anti-γ-H2AX or anti-α-tubulin antibody. […] Cell lysates were then analyzed by Western blotting (upper panel) using anti-γ-H2AX or anti-α-tubulin antibody. Quantification of γ-H2AX signals is shown in the lower panel. C, H9C2 cells were treated with 0.1% DMSO (labeled DMSO), bortezomib (1 μM) or MG132 (4 μM) for 30 min, followed by co-treatment with either 0.1% DMSO (labeled control) or 0.5 μM doxorubicin (labeled Doxo) for 1.5 hrs. Neutral comet assay was then performed as described in Materials and Methods. The average comet tail moments were plotted as histograms (mean±SEM). *p-value<0.001, t-test.

[4] = system: melanomas in the skin of DMBA-initiated TOP2β+ and skin-specific top2β knockout mice; test: Carcinogenesis assay using a mouse skin model; assay type: in vivo
Description: Skin-specific top2β knockout mice and their TOP2β^+ controls were derived from the top2β^+/flox2 and top2β^flox2/flox2 lines previously reported. The top2β^flox2 allele contains two loxP sites flanking three Top2β exons that encode a region of TopIIβ containing the active-site tyrosyl residue; this allele expresses wild-type TopIIβ, but is converted to a null allele top2β^Δ2 upon exposure to Cre recombinase. Skin-specific deletion within the floxed top2β allele is achieved by crossing the top2β^flox2 lines with mice expressing Cre recombinase from the keratin 14 promoter (kindly provided by Andrew P. McMahon, Harvard University). The K14-Cre transgenic mouse line expresses Cre in the keratinocytes of the epidermis and the hair follicles during prenatal and postnatal development. Mice with the genotype K14-Cre top2β^flox2/flox2, K14-Cre top2β^+/flox2, top2β^flox2/flox2 and top2β^+/flox2 were generated and used in this study; with the exception of K14-Cre top2β^flox2/flox2 mice, which lack TopIIβ in skin cells, all the others are phenotypically Top2β^+ in all tissues.
Seven-week old skin-specific top2β knockout mice and their TOP2β^+ controls were used in the study. The back of each mouse was shaved two days prior to treatment. The tumor initiator DMBA (1 μmol in 100 μl of DMSO) was applied once in the first week, followed by various treatments (two applications per week) for six groups of animals: Group 1, DMSO (100 μl), 5 applications; Group 2, VP-16 (10 μmol in 100 μl DMSO), 5 applications; Group 3, VP-16 (20 μmol in 200 μl of DMSO), 3 applications; Group 4, the tumor promoter TPA (phorbol 12-tetradecanoate 13-acetate, 17 nmol in 100 μl DMSO), 8 applications; Group 5, VP-16 (5 μmol in 100 μl DMSO), 5 application; Group 6, VP-16 (5 μmol in 100 μl DMSO), 10 applications. Mice were examined every week for appearance of melanomas on their skins. The number of melanomas visibly notable was scored at the end of the 16th week. The average numbers of tumors induced in different treatment groups were compared using Student's t-test.

[5] = system: Top2β+/− and Top2β−/− MEFs; test: 4-day MTT assay in transformed MEFs; assay type: cell-based, mouse; settings: triplicates
Protocol: (§5) Primary MEFs were isolated from E13.5 Top2β^+/+, Top2β^+/Δ2 and Top2β^Δ2/Δ2 mouse embryos, as described (the Top2β^Δ2 allele contains a deletion in the coding region of the active-site tyrosyl residue). SV40-transformed MEFs were obtained by transformation with pAN2 DNA as described. Cells were maintained in DMEM supplemented with 10% FetalPlex animal serum complex (Gemini Bio-Products), L-glutamine (2 mM), penicillin (100 units/ml), and streptomycin (100 μg/ml) in a 37° C. incubator with 5% CO2. PC12 cells were first clonally selected and then used to generate Top2β-shRNA and control-shRNA knockdown cells. A rat Top2β-shRNA sequence (5′-[…]-3′) was generated based on the 643-bp partial rat TopIki cDNA sequence (GenBank™ accession number D14046). Duplex (5′-[…]-3′) DNA was made and cloned into the LentiLox 3.7 vector (obtained from Dr. van Parijs, MIT). The control-shRNA sequence (5′-[…]-3′) was created by altering three nucleotides in the rat Top2β-shRNA sequence (underlined). The duplex (5′-[…]-3′) DNA was cloned into the LentiLox 3.7 vector. […]
(§6) Top2β contributes minimally to VP-16 cytotoxicity in transformed cells. […] To test if Top2β is also important for VP-16 cytotoxicity, we determined the IC50 of VP-16 in two pairs of transformed Top2β knockout/knockdown cells using 4-day MTT assay (in triplicates). […]

[6] = system: control-shRNA-PC12 and Top2β-shRNA-PC12 cells; test: 4-day MTT assay in PC12 knockdown cells; assay type: cell-based, rat
Protocol: as §5, §6

Top2β = Top2β protein level by Western blotting in H9C2 cells; assay type: cell-based; settings: 1 μM co-treatment
Protocol: (§7) The amount of Top2 cleavage complexes was measured by a band depletion assay as described in Materials and Methods. Cells were lysed either immediately or after reversal of the Top2 cleavage complexes (labeled R+250). Cell lysates were analyzed by Western blotting using anti-Top2α/Top2β or anti-α-tubulin antibody. […] Cells were then lysed and protein levels of Top2α, and Top2β isozymes were determined by Western blotting. […] Cell lysates were immunoblotted using anti-Top2β antibody. D, H9C2 cells were treated with ICRF187 (100 μM) for 4 hrs, followed by treatment with doxorubicin (Doxo, 0, 0.5 and 1 μM) for 1.5 hrs. Neutral comet assay was then performed as described in Materials and Methods. The average comet tail moments were plotted as histograms (mean±SEM). * p-value<0.001, t-test.

H9C2 cardiomyocytes [7] = assay type: cell-based; settings: bortezomib 1 μM or MG132 4 μM co-treatment, 0.5 μM doxorubicin, p<0.001
Protocol: as §4
as §7, with “Neutral comet assay was then performed as described in Materials and Methods. The average comet tail moments were plotted as histograms (mean±SEM). * p-value<0.001, t-test.” left out

Sequence of purified recombinant human Top2β (Q02880 whole entry): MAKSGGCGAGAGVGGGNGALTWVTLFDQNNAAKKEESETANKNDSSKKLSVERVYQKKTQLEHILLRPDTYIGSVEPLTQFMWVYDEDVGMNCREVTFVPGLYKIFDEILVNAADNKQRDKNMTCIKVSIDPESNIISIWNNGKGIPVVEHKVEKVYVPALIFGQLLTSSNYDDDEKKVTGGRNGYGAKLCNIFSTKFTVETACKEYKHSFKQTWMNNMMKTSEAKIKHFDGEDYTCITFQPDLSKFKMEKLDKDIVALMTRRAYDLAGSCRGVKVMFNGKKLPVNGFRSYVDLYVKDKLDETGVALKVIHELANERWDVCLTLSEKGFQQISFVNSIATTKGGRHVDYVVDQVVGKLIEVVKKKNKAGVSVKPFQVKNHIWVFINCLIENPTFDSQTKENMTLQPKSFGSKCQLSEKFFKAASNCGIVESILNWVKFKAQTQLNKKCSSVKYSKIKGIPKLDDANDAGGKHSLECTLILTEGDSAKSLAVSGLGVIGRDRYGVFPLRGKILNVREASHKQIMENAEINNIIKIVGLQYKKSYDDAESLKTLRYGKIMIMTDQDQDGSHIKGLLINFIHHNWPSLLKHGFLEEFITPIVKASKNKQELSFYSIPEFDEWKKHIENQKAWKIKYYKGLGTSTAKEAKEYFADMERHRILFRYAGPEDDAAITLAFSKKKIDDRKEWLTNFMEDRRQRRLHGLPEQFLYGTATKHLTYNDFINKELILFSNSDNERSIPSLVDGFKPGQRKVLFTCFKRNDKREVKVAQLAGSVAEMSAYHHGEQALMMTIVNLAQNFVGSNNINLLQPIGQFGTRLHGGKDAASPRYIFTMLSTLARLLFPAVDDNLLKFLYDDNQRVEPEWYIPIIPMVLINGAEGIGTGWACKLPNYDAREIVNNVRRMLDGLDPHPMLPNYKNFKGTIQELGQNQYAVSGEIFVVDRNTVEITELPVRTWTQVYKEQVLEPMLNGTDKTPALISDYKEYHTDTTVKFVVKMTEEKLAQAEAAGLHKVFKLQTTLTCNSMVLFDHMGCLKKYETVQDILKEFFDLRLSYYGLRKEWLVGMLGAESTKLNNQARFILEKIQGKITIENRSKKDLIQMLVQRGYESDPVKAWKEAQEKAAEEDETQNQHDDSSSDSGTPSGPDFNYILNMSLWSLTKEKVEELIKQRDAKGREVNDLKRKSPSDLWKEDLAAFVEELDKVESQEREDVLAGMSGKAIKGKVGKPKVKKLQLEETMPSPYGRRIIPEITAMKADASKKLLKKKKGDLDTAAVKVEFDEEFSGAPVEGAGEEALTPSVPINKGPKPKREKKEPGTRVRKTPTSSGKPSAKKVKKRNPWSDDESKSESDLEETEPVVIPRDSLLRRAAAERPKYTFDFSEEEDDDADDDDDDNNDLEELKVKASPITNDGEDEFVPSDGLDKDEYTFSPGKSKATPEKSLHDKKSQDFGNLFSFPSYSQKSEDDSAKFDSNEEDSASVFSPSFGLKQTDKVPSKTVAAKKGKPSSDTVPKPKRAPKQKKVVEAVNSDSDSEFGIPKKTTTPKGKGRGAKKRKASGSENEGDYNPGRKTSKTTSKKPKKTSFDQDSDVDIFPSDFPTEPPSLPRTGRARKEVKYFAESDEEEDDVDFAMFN
Sequence of purified recombinant human Top2α (P11388 whole entry): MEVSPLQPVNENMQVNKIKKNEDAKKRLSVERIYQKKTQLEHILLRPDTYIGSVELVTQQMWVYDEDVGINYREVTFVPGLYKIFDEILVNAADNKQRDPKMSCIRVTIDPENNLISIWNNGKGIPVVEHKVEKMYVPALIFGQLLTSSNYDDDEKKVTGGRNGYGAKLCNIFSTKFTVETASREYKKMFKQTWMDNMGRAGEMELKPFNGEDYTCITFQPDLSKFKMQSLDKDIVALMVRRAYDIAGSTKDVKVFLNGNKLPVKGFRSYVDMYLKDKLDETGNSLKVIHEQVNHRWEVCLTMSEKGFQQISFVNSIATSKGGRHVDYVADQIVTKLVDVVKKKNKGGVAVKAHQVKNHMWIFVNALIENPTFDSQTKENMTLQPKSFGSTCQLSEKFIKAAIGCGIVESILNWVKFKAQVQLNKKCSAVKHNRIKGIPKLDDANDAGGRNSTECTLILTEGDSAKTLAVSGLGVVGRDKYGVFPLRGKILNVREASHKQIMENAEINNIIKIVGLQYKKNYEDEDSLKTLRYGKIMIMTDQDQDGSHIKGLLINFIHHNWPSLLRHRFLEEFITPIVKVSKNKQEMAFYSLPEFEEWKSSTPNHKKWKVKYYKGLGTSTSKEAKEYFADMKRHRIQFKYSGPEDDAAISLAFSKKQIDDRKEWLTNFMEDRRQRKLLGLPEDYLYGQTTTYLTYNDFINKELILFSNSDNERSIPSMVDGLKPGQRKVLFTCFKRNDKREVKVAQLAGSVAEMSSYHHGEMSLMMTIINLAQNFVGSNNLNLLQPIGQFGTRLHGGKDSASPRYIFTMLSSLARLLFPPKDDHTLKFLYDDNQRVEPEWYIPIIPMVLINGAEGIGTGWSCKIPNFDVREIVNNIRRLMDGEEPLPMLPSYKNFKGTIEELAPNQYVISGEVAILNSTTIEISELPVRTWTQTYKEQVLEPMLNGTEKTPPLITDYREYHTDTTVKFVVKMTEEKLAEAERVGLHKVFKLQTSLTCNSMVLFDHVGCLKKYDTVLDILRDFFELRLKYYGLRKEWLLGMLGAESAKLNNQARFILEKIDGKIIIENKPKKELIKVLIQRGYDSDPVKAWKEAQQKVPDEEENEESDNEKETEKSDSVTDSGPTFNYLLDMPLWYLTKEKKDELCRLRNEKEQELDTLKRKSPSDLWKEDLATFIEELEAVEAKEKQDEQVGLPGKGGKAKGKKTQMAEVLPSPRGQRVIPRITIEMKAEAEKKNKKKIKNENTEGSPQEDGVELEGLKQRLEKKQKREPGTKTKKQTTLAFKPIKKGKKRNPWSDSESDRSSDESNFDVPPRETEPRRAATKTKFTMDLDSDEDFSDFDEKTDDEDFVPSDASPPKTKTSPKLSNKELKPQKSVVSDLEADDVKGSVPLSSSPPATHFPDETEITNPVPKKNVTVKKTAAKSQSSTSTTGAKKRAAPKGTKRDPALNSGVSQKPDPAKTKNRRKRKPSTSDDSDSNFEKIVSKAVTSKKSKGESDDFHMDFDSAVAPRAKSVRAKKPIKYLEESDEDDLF

Compound	Poisoning activity against Top2β [1]	activity against Top2β [1]	activity against Top2α [2]	IC50 (A549 lung carcinoma) [nM]	other results
1,2-dibenzyl-9-fluorobenzyl-9H-pyrido[3,4-b]indol-2-ium [compound 9]	−	non-detectable	roughly 20 fold	4200	
2,9-dibenzyl-1-chlorophenyl-9H-pyrido[3,4-b]indol-2-ium [compound 8]	−	non-detectable	roughly 20 fold	6100	
9-butyl-1-chlorobenzyl-2-(3-phenylpropyl)-9H-pyrido[3,4-b]indol-2-ium [compound 10]	+	10 fold	roughly 20 fold	< 1700	
COc1cccc2c1C(=O)c1c(O)c3c(c(O)c1C2=O)C[C@@](O)(C(=O)CO)C[C@@H]3O[C@H]1C[C@H](N)[C@H](O)[C@H](C)O1 [Doxorubicin, doxorubicin]					induction of γ-H2AX (H9C2 cardiomyocytes [3]; 0.1-10 μM, 1 hr): concentration-dependent up to 1 μM
CC(=O)N[C@@H](CS)C(=O)O [N-Acetyl Cysteine]					effect on doxorubicin-induced γ-H2AX (H9C2 cardiomyocytes [3]): unaffected
CCCCCCCCCCCCCC(=O)O[C@@H]1[C@@H](C)[C@@]2(O)[C@@H](C=C(CO)C[C@]3(O)C(=O)C(C)=C[C@@H]23)[C@@H]2C(C)(C)[C@]12OC(C)=O [TPA, phorbol 12-tetradecanoate 13-acetate]					ratio of average number of melanomas per mouse, Top2β+ versus Top2β− mice ([4]; Group 4, TPA treatment): 1.3; increase in the average number of melanomas per mouse versus DMSO ([4]; TOP2β+ mice, Group 4, 17 nmol × 8 applications): 130%; increase in skin melanoma versus DMSO ([4]; TOP2β− mice, Group 4, 17 nmol × 8 applications): 150%
COc1cc([C@@H]2c3cc4c(cc3[C@@H](O[C@@H]3O[C@@H]5CO[C@@H](C)O[C@H]5[C@H](O)[C@H]3O)[C@H]3COC(=O)[C@H]23)OCO4)cc(OC)c1O [VP16, etoposide]					IC50 ([5]; Top2β+/− MEFs): 38 ± 7 nM; IC50 ([5]; Top2β−/− MEFs): 40 ± 6 nM; more melanomas in TOP2β+ mice than in skin-specific Top2β knockout mice ([4]; mouse, in vivo): 2-13 fold; IC50 ([6]; Top2β-shRNA-PC12 cells): 1600 ± 100 nM; IC50 ([6]; control-shRNA-PC12 cells): 1900 ± 100 nM
CC(C)C[C@H](NC(=O)[C@H](Cc1ccccc1)NC(=O)c1cnccn1)B(O)O [bortezomib]					effect on dexrazoxane-induced degradation of Top2β (Top2β): abolished; effect on doxorubicin-induced comet tail moment (H9C2 cardiomyocytes [7]): significantly reduced
CCCCOc1ccc2c3cc[n+](Cc4ccccc4)c(C)c3n(CC(C)C)c2c1 [compound 3, 2-benzyl-7-butoxy-9-isobutyl-1-methyl-9H-pyrido[3,4-b]indol-2-ium]	−	non-detectable	roughly 20 fold	4600	
Cc1c2c(cc[n+]1Cc1ccccc1)c1ccc(OCC(C)C)cc1n2CC(C)C [compound 4, 2-benzyl-7-isobutoxy-9-isobutyl-1-methyl-9H-pyrido[3,4-b]indol-2-ium]	−	non-detectable	roughly 20 fold	5300	
O=C1O[C@H]([C@@H](O)CO)C(O)=C1O [vitamin C]					effect on doxorubicin-induced γ-H2AX (H9C2 cardiomyocytes [3]): unaffected
ICRF-193					effect on doxorubicin (0.5 μM)- and VP-16 (10 μM)-induced γ-H2AX (H9C2 cardiomyocytes [3]): abolished
